#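 48-hour exposure; five concentrations; linearly interpolated endpoints. GI50 = concentration required for 50% inhibition of growth.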 Calls of active or inactive are those of the source. Rule as the data show it: active = GI50 up to about 1.1 µM and inactive = higher.
# What was measured:
# Experiment in all cases: NCI-60 cell line screen, 48 h
# [1] = system: SK-OV-3
# [2] = system: HCT-116
# [3] = system: SW-620
# [4] = system: SR
# [5] = system: SK-MEL-2
# [6] = system: SK-MEL-5
# [7] = system: IGROV-1
# [8] = system: M14
# [9] = system: NCI-H460
# [10] = system: CAKI-1
# [11] = system: HOP-92
# [12] = system: SF-295
# [13] = system: A549
# [14] = system: SNB-75
# [15] = system: CCRF-CEM
# [16] = system: NCI/ADR-RES
# [17] = system: BT-549
# [18] = system: PC-3
# [19] = system: MDA-N
Compound,GI50 [1],GI50 [2],GI50 [3],GI50 [4],GI50 [5],GI50 [6],GI50 [7],GI50 [8],GI50 [9],GI50 [10],GI50 [11],GI50 [12],GI50 [13],GI50 [14],GI50 [15],GI50 [16],GI50 [17],GI50 [18],GI50 [19]
Cc1nc2cc(Nc3ccccc3C(=O)O)ccc2s1,> 100 µM (inactive),90.8 µM (inactive),> 100 µM (inactive),> 100 µM (inactive),> 100 µM (inactive),> 100 µM (inactive),> 100 µM (inactive),> 100 µM (inactive),> 100 µM (inactive),> 100 µM (inactive),> 100 µM (inactive),> 100 µM (inactive),> 100 µM (inactive),> 100 µM (inactive),> 100 µM (inactive),,,,
O=C(O)c1ccc(N2C=[N+]3C(=Nc4ccccc43)C2)cc1,> 100 µM (inactive),> 100 µM (inactive),> 100 µM (inactive),,> 100 µM (inactive),> 100 µM (inactive),> 100 µM (inactive),> 100 µM (inactive),> 100 µM (inactive),> 100 µM (inactive),,> 100 µM (inactive),> 100 µM (inactive),62.7 µM (inactive),> 100 µM (inactive),> 100 µM (inactive),> 100 µM (inactive),> 100 µM (inactive),> 100 µM (inactive)
Cn1c(COC(=O)NC2CCCCC2)c(COC(=O)NC2CCCCC2)c2ccc3cc(C=O)ccc3c21,> 100 µM (inactive),> 100 µM (inactive),> 100 µM (inactive),,> 100 µM (inactive),> 100 µM (inactive),> 100 µM (inactive),> 100 µM (inactive),> 10 µM (inactive),> 100 µM (inactive),32 µM (inactive),> 100 µM (inactive),> 100 µM (inactive),18.6 µM (inactive),> 100 µM (inactive),> 100 µM (inactive),> 100 µM (inactive),> 100 µM (inactive),> 100 µM (inactive)
CN(C)CCNc1ncnc2nc(-c3ccccc3)c(-c3ccccc3)nc12,> 100 µM (inactive),> 100 µM (inactive),> 100 µM (inactive),,> 100 µM (inactive),> 100 µM (inactive),> 100 µM (inactive),> 100 µM (inactive),,> 100 µM (inactive),,,> 100 µM (inactive),87.7 µM (inactive),> 100 µM (inactive),> 100 µM (inactive),> 100 µM (inactive),> 100 µM (inactive),> 100 µM (inactive)
O=c1[nH]c(=O)c2c3n(cc2[nH]1)CCCCC3,> 100 µM (inactive),> 100 µM (inactive),,> 100 µM (inactive),,> 100 µM (inactive),> 100 µM (inactive),> 100 µM (inactive),> 100 µM (inactive),> 100 µM (inactive),> 100 µM (inactive),> 100 µM (inactive),> 100 µM (inactive),> 100 µM (inactive),> 100 µM (inactive),> 100 µM (inactive),,> 100 µM (inactive),> 100 µM (inactive)
CC(C)c1ccc(NC(=S)NC(=O)c2ccccc2)cc1,42 µM (inactive),22.2 µM (inactive),22.3 µM (inactive),,20 µM (inactive),13.4 µM (inactive),25.4 µM (inactive),17.3 µM (inactive),15.5 µM (inactive),20.5 µM (inactive),40.9 µM (inactive),14.1 µM (inactive),30.8 µM (inactive),,11.4 µM (inactive),31.7 µM (inactive),24.9 µM (inactive),36.5 µM (inactive),
N#Cc1cc(C#N)c(Cl)nc1N,> 10 µM (inactive),> 10 µM (inactive),> 10 µM (inactive),> 10 µM (inactive),> 10 µM (inactive),> 10 µM (inactive),> 10 µM (inactive),,> 10 µM (inactive),,> 10 µM (inactive),> 10 µM (inactive),> 10 µM (inactive),> 10 µM (inactive),> 10 µM (inactive),> 10 µM (inactive),,> 10 µM (inactive),> 10 µM (inactive)
Cn1c(=O)c2c(n(C)c1=O)n1c(=O)c3ccccc3nc1n2C,> 100 µM (inactive),> 100 µM (inactive),> 100 µM (inactive),0.0237 µM (active),> 100 µM (inactive),> 100 µM (inactive),> 100 µM (inactive),> 100 µM (inactive),,> 100 µM (inactive),> 100 µM (inactive),38 µM (inactive),> 100 µM (inactive),39.4 µM (inactive),> 100 µM (inactive),> 100 µM (inactive),> 100 µM (inactive),> 100 µM (inactive),
S=C1N=C(Cl)/C(=C\c2ccco2)N1,> 100 µM (inactive),> 100 µM (inactive),> 100 µM (inactive),> 79.6 µM (inactive),> 100 µM (inactive),> 100 µM (inactive),> 100 µM (inactive),> 100 µM (inactive),> 100 µM (inactive),> 100 µM (inactive),> 100 µM (inactive),> 100 µM (inactive),> 100 µM (inactive),> 74.6 µM (inactive),> 100 µM (inactive),> 100 µM (inactive),> 100 µM (inactive),> 100 µM (inactive),

# — ChEMBL document CHEMBL1201862, “PubChem BioAssay data set” (2004)
